In patent EP0775133B1, “NAPHTHALENE AMIDES HAVING LEUKOTRIENE-ANTAGONISTIC ACTION” (LABORATORIOS MENARINI S.A., priority 1994, dated 1996):
Counter-ions that a name gives are not always drawn.

Columns and labels:
[1] = test system: mienteric plexus of guinea-pig isolated ileum; test: Inhibition of LTD4-induced contractions in the mienteric plexus of guinea-pig isolated ileum; conditions: LTD4 3 nM, compound incubated 2.5 minutes
Protocol: Inhibition test of the contractions induced by LTD4 in the mienteric plexus of quinea-pig isolated ileum.
The antagonistic activity of the compounds of the present invention in the isolated organ was evaluated as its ability to inhibit the contraction caused by LTD4 in the mienteric plexus of the ileum of Dunkin Hartley male albino guinea-pig, weighing 300-350 g (Cristol J.P. and Sirois P. Res. Commun. Chem. Pathol., 59, 423 (1988)).
The mienteric plexus is extracted from a 2-3 cm segment of the terminal portion of the guinea-pig ileum, previously sacrificed by cervical dislocation. The plexus is put, at a tension of 0.5 g, in a 5 ml organ bath, containing a solution of Tyrode (137 mM NaCl, 2.7 mM KCl, 1.4 mM CaCl2, 0.4 mM NaH2PO4, 11.9 mM NaHCO3, 0.8 mM MgSO4, 5.5 mM glucose), saturated with carbogen gas (95% 02-5% CO2) at 37°C. The solution also contains indomethacin (3.3 µM) and atropine (0.4 µM) to remove the action of the intrinsic prostaglandins and the cholinergic responses.
After a 45 minute stabilization period a maximum isotonic response is obtained (100% contractile response) adding to the bath chamber the LTD4 agonist (3 nM). This process is repeated until the same contraction response is obtained twice. The […] measures are made in an isotonic transducer.
After stabilization is restored, the product under test is incubated at different concentrations (dissolved in 0.1% final concentration DMSO) for 2.5 minutes, and after that the contraction with LTD4 is induced again.
The antagonistic activity is expressed as IC50, the concentration of compound which reduces by 50% the maximum contraction.

LTD4 receptors = target: T1, LTD4 receptors (Cavia porcellus, UniProt Q2NNR5); test: [3H]-LTD4 receptor binding inhibition test in guinea-pig lung membranes; conditions: 0.5 nM [3H]-LTD4, 30 minutes at 25°C, Cheng-Prusoff
T1 construct: Guinea pig lung membranes, containing the LTD4 receptors; from tissue; host or cells: guinea-pig lung membranes
T1 sequence (Q2NNR5 1-340): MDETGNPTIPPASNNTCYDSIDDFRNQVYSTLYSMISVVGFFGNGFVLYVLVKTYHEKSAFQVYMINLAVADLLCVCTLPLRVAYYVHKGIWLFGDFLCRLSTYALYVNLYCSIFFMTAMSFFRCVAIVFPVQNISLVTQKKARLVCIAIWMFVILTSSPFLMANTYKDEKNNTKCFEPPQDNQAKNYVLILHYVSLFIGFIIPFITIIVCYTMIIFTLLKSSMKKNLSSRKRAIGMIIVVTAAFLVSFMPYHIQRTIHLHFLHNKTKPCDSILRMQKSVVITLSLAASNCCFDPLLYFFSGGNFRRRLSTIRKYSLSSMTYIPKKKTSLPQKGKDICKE
Protocol: [^3H]-LTD4 receptor binding inhibition test in quinea-pig lung membranes
These purified membranes (150 µg/ml) are added to an incubation mixture containing 10 mM of PIPES buffer (piperazin-N,N'-bis(2-ethanesulfonic acid) (pH 7.4), 10 mM of CaCl2, 10 mM of 5 MgCl2, 2 mM of cysteine, 2 mM of glycine, 0.5 nM of [^3H]-LTD4 (4700-6400 GBq/mmol) and different concentrations of the product under test in a final volume of 310 µl. The reaction mixture is incubated for 30 minutes at 25°C.
The radioligand bound to the membranes is separated from the free one by dilution with 4 ml washing buffer (10 mM Tris-HCl (pH 7.4) and 100 mM NaCl) at 0°C and filtration with Whatman GF/B filters, by means of a Brandel Cell Harvester. The filters are washed 4 times with a total volume of 16 ml of washing buffer at 0°C. The radioactivity present in the filters is determined by liquid scintillation.
The specific binding is defined as the difference between the total binding of [^3H]-LTD4 and the nonspecific binding determined in the presence of 1 µM LTD4.

Compound | IC50 [1] [nM] | Ki (LTD4 receptors) [nM]
CC(C(=O)NCc1ccccc1-c1nnn[nH]1)c1ccc2cc(OCc3ccc4ccccc4n3)ccc2c1 (centres unmarked) [Example 3, N-[2-(1H-5-tetrazolyl)phenylmethyl]-2-[6-(2-quinolinylmethoxy)-2-naphthyl]propanamide] | 18 | 12 ± 3
CC(C(=O)Nc1ccc(Cc2nnn[nH]2)cc1)c1ccc2cc(OCc3ccc4ccccc4n3)ccc2c1 (centres unmarked) [Example 5, N-[4-(1H-5-tetrazolyl)methylphenyl]-2-[6-(2-quinolinylmethoxy)-2-naphthyl]propanamide] | > 100 | 34 ± 5
CC(C(=O)Nc1ccc(Cc2nn[nH]n2)cc1)c1ccc2cc(OCc3ccc4ccccc4n3)ccc2c1 (centres unmarked) [Example 6, N-[4-(1H-5-tetrazolyl)methylphenyl]-2-[6-(2-quinolinylmethoxy)-2-naphthyl]propanamide (sodium salt)] | > 100 | 32.7 ± 3
CC(C(=O)NCc1cccc(C(=O)O)c1)c1ccc2cc(OCc3ccc4ccccc4n3)ccc2c1 (centres unmarked) [Example 14, 3-[2-[6-(2-quinolinylmethoxy)-2-naphthyl]propanamidomethyl]benzoic acid] | 75 | 68 ± 5
O=C(O)CCCc1ccc(NC(=O)c2ccc3cc(OCc4ccc5ccccc5n4)ccc3c2)cc1 [Example 23, 4-[4-[[6-(2-quinolinylmethoxy)-2-naphthyl]carboxamido]phenyl]butanoic acid] | > 100 | 30 ± 1.2
O=C(O)CCCc1ccc(NC(=O)c2ccc3ccc(OCc4ccc5ccccc5n4)cc3c2)cc1 [Example 26, 4-[4-[[7-(2-quinolinylmethoxy)-2-naphthyl]carboxamido]phenyl]butanoic acid] | 38 | –
O=C(O)c1ccc(CCNC(=O)c2ccc3ccc(OCc4ccc5ccccc5n4)cc3c2)cc1 [Example 29, 4-[2-[[7-(2-quinolinylmethoxy)-2-naphthyl]carboxamido]ethyl]benzoic acid] | 8 | 1 ± 0.1
O=C(O)CCCc1ccc(C(=O)NCc2ccc3cc(OCc4ccc5ccccc5n4)ccc3c2)cc1 [Example 32, 4-[4-[[6-(2-quinolinylmethoxy)-2-naphthyl]methylaminocarbonyl]phenyl]butanoic acid] | – | 44 ± 15

Other lines, results leading:

IC50 [1] [nM] | Ki (LTD4 receptors) [nM] | Compound
13 | – | CC(C(=O)NCc1ccc(-c2nnn[nH]2)cc1)c1ccc2cc(OCc3ccc4ccccc4n3)ccc2c1 (centres unmarked) [Example 1, N-[4-(1H-5-tetrazolyl)phenylmethyl]-2-[6-(2-quinolinylmethoxy)-2-naphthyl]propanamide]
66 | 29.5 ± 3 | CC(C(=O)NCc1cccc(-c2nnn[nH]2)c1)c1ccc2cc(OCc3ccc4ccccc4n3)ccc2c1 (centres unmarked) [Example 2, N-[3-(1H-5-tetrazolyl)phenylmethyl]-2[6-(2-quinolinylmethoxy)-2-naphthyl]propanamide]
> 100 | 38.5 ± 6.3 | CC(C(=O)Nc1ccc(CCCC(=O)O)cc1)c1ccc2cc(OCc3ccc4ccccc4n3)ccc2c1 (centres unmarked) [Example 10, 4-[4-[2-[6-(2-quinolinylmethoxy)-2-naphthyl]propanamido]phenyl]butanoic acid]
– | 134 ± 18 | CC(C(=O)Nc1cccc(CC(=O)O)c1)c1ccc2cc(OCc3ccc4ccccc4n3)ccc2c1 (centres unmarked) [Example 18, 3-[2-[6-(2-Quinolinylmethoxy)-2-naphthyl]propanamido]phenylacetic acid]
– | 190 ± 21 | CC(C(=O)Nc1ccc(CCCC(=O)O)cc1)c1ccc2cc(OCc3ccc4ccc(Cl)cc4n3)ccc2c1 (centres unmarked) [Example 20, 4-[4-[2-[6-[(7-chloro-2-quinolinyl)-methoxy]-2-naphthyl]propanamido]phenyl]butanoic acid]
6 | 5.5 ± 0.5 | O=C(Cc1ccc2cc(OCc3ccc4ccccc4n3)ccc2c1)NCc1ccc(-c2nnn[nH]2)cc1 [Example 21, N-[4-(1H-5-tetrazolyl)phenylmethyl]-6-(2-quinolinylmethoxy)-2-naphthaleneacetamide]
– | 28 ± 3 | O=C(NCc1cccc(-c2nnn[nH]2)c1)c1ccc2cc(OCc3ccc4ccccc4n3)ccc2c1 [Example 24, N-[3-(1H-5-tetrazolyl)phenylmethyl]-6-(2-quinolinylmethoxy)-2-naphthalenecarboxamide]
28 | 7.8 ± 2 | O=C(NCc1ccc(-c2nnn[nH]2)cc1)c1ccc2ccc(OCc3ccc4ccccc4n3)cc2c1 [Example 27, N-[4-(1H-5-tetrazolyl)phenylmethyl]-7-(2-quinolinylmethoxy)-2-naphthalenecarboxamide]
24 | – | O=C(NCCc1ccc(-c2nnn[nH]2)cc1)c1ccc2ccc(OCc3ccc4ccccc4n3)cc2c1 [Example 30, N-[4-(1H-5-tetrazolyl)phenylethyl]-7-(2-quinolinylmethoxy)-2-naphthalenecarboxamide]
87 | 13.1 ± 2 | O=C(NCCCc1ccc(-c2nnn[nH]2)cc1)c1ccc2ccc(OCc3ccc4ccccc4n3)cc2c1 [Example 33, N-[4-(1H-5-tetrazolyl)phenylpropyl]-7-(2-quinolinylmethoxy)-2-naphthalenecarboxamide]
